Laboratory results as given in US7902363B2, “Diimide-based semiconductor materials and methods of preparing and using the same” (Polyera Corporation, priority 2006, dated 2011).

Key:
[1] = Solubility data in organic common solvents; type: physicochemical; conditions: comparison in words
Source text: Solubility data were obtained for compounds of the present teachings in various organic common solvents (Table 3). N,N′-bis(4-n-octyl)-1,7-dicyanoperylene-3,4:9,10-bis(dicarboxiamide) (PDI8-CN2) was included as a comparative compound.

[2] = Solubility of isolated product in common organic solvents (noted at work-up); type: physicochemical; conditions: product after cyanation
Procedure: A mixture of N,N′-bis[4-(2′,3′,4′,5′,6′-pentafluorobiphenyl)]-1,7-dibromoperylene-3,4:9,10-bis(dicarboxiamide) (0.21 g, 0.203 mmol) and CuCN (0.33 g, 3.69 mmol) in DMF (10 mL) was deaerated and placed under nitrogen. The reaction mixture was heated at 150° C. for 9 hours. After cooling to room temperature, the precipitate was collected by filtration, washed several times with MeOH, and dried overnight. The product (0.11 g, 0.12 mmol, 59.1% yield) was insoluble in common organic solvents and it was gradient-sublimed.
A mixture of N,N′-bis(4-benzoylphenyl)-1,7-dibromoperylene-3,4:9,10-bis(dicarboxiamide) (0.60 g, 0.66 mmol) and CuCN (1.07 g, 12.0 mmol) in DMF (27 mL) was deaerated and placed under nitrogen. The reaction mixture was heated at 150° C. for 6 hours. After cooling to room temperature, the precipitate was collected by filtration, washed several times with MeOH, and dried overnight. The crude solid (0.42 g) was insoluble in common organic solvents.

| solubility compared to PDI8-CN2 and the other compounds of Table 3 [1] | solubility in common organic solvents [2] | Compound |
| --- | --- | --- |
| unexpected increase in solubility |  | CC(C)=CCC[C@H](C)CCN1C(=O)c2ccc3c4c(C#N)cc5c6c(ccc(c7c(C#N)cc(c2c37)C1=O)c64)C(=O)N(CC[C@@H](C)CCC=C(C)C)C5=O [PDICitr-CN2, N,N′-bis[(3S)-3,7-dimethyl-6-octenyl]-1,7-dicyanoperylene-3,4:9,10-bis(dicarboxiamide)] |
|  | insoluble | N#Cc1cc2c3c(ccc4c5c(C#N)cc6c7c(ccc(c1c34)c75)C(=O)N(c1ccc(C(=O)c3ccccc3)cc1)C6=O)C(=O)N(c1ccc(C(=O)c3ccccc3)cc1)C2=O [PDIPhCOPh-CN2, N,N′-bis(4-n-benzoylphenyl)-1,7-dicyanoperylene-3,4:9,10-bis(dicarboxiamide)] |
|  | insoluble | N,N′-bis[4-(2′,3′,4′,5′,6′-pentafluorobiphenyl)]-1,7-dibromoperylene-3,4:9,10-bis(dicarboxiamide) [PDIPhPh^F-CN2] |
